Test results published in ChEMBL document CHEMBL1201862, “PubChem BioAssay data set” (2004).
Activity calls are given as the source filed them.

Legend:
Galanin receptor type 3 = Galanin receptor type 3 (Homo sapiens, UniProt O60755); test: Fluorescence-based cell-based primary high throughput dose response assay to identify antagonists of the Galanin Receptor 3 (GalR3).; assay type: functional
cells [1] = assay type: functional, cell-based; conditions: HEK-CNG
[2] = molecular target: T1, COUP transcription factor 2 (Homo sapiens, UniProt P24468); test: Luminescence-based cell-based high throughput dose response assay to identify inhibitors of COUP-TFII (NR2F2).; assay type: functional;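 also: HEK293 cells transiently cotransfected with COUP-TFII expression vector and reporter; luciferase reporter luminescence driven by COUP-TFII from the pX2-168 reporter plasmid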
T1 sequence (P24468 whole entry): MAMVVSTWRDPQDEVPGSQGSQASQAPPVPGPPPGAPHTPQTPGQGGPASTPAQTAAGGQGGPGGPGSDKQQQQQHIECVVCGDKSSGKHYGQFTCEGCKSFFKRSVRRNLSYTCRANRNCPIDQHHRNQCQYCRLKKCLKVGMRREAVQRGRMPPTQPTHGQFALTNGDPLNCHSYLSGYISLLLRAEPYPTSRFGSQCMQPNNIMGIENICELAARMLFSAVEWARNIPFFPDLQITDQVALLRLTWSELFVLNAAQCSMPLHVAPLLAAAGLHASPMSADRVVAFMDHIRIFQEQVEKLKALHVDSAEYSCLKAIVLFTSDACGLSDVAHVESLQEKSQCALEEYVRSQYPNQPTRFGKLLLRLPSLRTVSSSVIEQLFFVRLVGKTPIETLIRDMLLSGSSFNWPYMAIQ

[3] = molecular target: Long-chain-fatty-acid--AMP ligase FadD28 (Mycobacterium tuberculosis, UniProt P9WQ59); test: Fluorescence polarization aasay to screen for inhibitors that compete for the binding of FadD28 to a bisubstrate Measured in Biochemical System Using Plate Reader - 2147-01_Inhibitor_Dose_CherryPick_Activity.; assay type: functional, Mycobacterium tuberculosis H37Rv
Long-chain-fatty-acid--AMP ligase FadD28, sequence (P9WQ59 whole entry): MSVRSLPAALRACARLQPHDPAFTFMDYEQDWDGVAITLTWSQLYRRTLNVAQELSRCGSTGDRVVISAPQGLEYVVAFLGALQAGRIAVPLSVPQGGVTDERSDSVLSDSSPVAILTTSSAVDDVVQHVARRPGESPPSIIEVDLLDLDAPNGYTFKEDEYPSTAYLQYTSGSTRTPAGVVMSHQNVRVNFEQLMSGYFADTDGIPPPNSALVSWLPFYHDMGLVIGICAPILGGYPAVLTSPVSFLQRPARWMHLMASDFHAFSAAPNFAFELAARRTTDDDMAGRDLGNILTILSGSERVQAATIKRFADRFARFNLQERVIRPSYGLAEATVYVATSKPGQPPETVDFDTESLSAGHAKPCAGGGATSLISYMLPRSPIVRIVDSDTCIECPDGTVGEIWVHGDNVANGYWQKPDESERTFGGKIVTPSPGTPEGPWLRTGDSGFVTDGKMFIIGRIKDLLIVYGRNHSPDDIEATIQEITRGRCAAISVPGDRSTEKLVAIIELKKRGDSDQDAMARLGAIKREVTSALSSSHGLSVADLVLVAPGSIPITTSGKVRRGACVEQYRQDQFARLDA

Estrogen receptor = molecular target: T2, Estrogen receptor (Homo sapiens, UniProt P03372);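 also: potency for inhibiting coactivator peptide recruitment to the receptor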
T2 sequence (P03372 whole entry): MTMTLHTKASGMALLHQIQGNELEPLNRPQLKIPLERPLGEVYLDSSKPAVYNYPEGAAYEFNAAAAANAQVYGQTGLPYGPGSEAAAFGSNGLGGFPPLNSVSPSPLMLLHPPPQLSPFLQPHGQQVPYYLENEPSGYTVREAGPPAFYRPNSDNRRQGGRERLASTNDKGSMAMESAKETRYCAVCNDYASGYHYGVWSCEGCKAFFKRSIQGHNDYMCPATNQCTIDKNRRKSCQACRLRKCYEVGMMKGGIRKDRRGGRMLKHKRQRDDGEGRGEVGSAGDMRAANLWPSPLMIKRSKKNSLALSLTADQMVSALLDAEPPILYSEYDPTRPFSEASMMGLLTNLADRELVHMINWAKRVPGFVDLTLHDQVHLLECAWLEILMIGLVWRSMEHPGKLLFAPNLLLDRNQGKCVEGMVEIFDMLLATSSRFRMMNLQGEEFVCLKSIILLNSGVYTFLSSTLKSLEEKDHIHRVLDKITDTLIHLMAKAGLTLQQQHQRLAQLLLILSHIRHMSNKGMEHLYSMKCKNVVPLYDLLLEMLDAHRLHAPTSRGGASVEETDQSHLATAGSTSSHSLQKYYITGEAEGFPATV

[4] = HEK293 cell viability, dose response, counter-screen for EBV LMP1 inhibitor project, dry powder, set 2 (AID 624374); assay type: functional
[5] = molecular target: T3, Microphthalmia-associated transcription factor (Homo sapiens, UniProt O75030); test: TRPM1 promoter luciferase signal decrease, dose response, MITF inhibitor project, cell-based, SK-MEL-5, cherry-picked, set 3 (AID 493073); assay type: functional
T3 sequence (O75030 whole entry): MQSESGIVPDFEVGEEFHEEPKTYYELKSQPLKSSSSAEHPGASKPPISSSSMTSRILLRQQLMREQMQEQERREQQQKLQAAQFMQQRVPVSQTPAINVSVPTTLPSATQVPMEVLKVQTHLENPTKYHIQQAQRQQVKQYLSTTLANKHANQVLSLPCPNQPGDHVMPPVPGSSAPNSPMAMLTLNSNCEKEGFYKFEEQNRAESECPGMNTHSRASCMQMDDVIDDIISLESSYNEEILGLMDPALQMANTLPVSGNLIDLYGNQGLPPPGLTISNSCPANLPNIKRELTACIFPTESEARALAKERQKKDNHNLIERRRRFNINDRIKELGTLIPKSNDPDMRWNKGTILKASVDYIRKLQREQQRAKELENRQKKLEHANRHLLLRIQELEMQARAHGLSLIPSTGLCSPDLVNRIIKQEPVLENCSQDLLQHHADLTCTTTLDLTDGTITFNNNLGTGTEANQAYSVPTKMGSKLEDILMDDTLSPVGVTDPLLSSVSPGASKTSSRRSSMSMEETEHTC

[6] = Luminescence-based cell-based high throughput dose response assay to identify activators of the DAF-12 from the parasite S. stercoralis (ssDAF-12).; assay type: functional
[7] = molecular target: SWI/SNF-related matrix-associated actin-dependent regulator of chromatin subfamily A member 2 (Homo sapiens, UniProt P51531); test: Luminescence-based cell-based high throughput dose response assay to identify activators of the function of SWI/SNF related, matrix associated, actin dependent regulator of chromatin, subfamily a, member 2 (SMARCA2, BRM).; assay type: functional
SWI/SNF-related matrix-associated actin-dependent regulator of chromatin subfamily A member 2, sequence (P51531 whole entry): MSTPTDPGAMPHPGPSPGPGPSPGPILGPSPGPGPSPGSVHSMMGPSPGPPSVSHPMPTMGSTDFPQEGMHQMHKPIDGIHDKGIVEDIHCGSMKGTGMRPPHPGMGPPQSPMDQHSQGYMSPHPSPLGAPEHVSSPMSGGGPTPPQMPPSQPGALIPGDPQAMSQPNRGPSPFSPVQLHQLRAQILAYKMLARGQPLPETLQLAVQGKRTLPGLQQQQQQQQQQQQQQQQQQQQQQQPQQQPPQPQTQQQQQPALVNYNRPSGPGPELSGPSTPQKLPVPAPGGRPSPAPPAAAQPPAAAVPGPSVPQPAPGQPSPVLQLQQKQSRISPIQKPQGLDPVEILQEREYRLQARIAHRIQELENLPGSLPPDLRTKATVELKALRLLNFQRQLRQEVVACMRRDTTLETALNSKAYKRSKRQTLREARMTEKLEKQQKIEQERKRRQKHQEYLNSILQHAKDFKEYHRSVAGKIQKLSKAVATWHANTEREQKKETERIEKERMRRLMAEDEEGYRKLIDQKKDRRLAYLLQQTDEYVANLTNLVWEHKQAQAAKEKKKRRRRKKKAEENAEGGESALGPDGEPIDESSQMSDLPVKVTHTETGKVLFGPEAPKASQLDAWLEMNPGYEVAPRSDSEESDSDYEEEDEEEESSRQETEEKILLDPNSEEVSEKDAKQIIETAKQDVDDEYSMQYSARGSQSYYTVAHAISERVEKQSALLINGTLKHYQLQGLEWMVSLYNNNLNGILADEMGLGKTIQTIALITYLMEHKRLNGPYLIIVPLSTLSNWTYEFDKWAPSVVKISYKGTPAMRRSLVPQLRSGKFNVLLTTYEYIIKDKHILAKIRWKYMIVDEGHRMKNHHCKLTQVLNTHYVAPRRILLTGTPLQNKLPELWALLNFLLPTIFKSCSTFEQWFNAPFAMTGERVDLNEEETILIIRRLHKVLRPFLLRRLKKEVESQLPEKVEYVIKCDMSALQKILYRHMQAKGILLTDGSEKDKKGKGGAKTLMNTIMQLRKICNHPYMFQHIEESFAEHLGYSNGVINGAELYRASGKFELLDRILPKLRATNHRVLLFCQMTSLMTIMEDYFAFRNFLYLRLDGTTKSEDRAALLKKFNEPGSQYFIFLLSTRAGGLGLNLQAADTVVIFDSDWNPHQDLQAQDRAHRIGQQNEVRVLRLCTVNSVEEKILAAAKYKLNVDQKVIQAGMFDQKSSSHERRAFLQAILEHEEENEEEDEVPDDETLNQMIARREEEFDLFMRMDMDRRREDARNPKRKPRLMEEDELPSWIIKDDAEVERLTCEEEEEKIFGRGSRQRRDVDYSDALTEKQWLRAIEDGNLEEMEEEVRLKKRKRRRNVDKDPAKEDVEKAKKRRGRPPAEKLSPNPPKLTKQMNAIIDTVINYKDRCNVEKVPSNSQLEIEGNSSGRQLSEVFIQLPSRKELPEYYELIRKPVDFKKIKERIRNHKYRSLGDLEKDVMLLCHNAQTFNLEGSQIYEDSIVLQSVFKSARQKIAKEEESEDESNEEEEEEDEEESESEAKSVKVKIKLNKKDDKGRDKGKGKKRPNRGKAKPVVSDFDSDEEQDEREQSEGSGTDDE

[8] = molecular target: T4, Heat shock factor protein 1 (Mus musculus, UniProt P38532); test: HSF1 potentiators in luciferase reporter cells, confirmation, cell-based, NIH3T3, luminescence, dose retest (AID 435004); assay type: functional;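 also: stress induced by proteasome inhibitor MG132 added 30 min after compound; luciferase reporter driven by HSF1 response element in NIH3T3 cells; actives raise luminescence as potentiators of the MG132 stress response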
T4 sequence (P38532 whole entry): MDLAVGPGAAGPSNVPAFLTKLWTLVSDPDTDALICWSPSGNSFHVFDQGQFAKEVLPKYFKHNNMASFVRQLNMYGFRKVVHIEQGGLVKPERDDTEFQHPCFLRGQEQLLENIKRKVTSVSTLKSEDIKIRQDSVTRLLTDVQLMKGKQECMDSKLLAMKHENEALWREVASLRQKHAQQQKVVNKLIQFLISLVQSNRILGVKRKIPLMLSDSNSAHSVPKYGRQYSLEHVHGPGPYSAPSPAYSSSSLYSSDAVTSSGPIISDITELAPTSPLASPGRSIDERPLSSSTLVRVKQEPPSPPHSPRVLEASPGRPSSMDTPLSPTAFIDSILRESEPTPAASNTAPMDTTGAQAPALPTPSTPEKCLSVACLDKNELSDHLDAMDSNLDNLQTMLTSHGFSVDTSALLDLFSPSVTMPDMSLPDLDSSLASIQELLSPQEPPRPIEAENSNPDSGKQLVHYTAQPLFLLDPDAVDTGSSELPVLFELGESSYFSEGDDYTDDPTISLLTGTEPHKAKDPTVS

[9] = inhibitors of intracellular T. cruzi replication, confirmation, NIH3T3 host cells, beta-gal luminescence (AID 2044); assay type: functional, cell-based;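 also: intracellular parasites grown in NIH/3T3 mouse fibroblasts as host cells; luminescent beta-galactosidase reporter signal from transgenic T. cruzi replicating inside host cells; inhibitors lower the luminescence signal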
[10] = Counterscreen for activators of the function of SWI/SNF related, matrix associated, actin dependent regulator of chromatin, subfamily a, member 2 (SMARCA2, BRM): Luminescence-based cell-based high throughput dose response assay to identify non-selective compounds using the VP16 reporter assay.; assay type: functional
INS1 = test: beta cell apoptosis inhibitors, cytokine rescue, dose response, luminescence, retest (AID 449756); assay type: functional, cell-based; conditions: Rattus norvegicus;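 also: cell death triggered by IL-1 beta plus TNF-alpha plus IFN-gamma mixture; protective hits raise ATP signal compared with cytokine alone wells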
cells [11] = assay type: functional, cell-based
cells [12] = assay type: functional, cell-based; remark: listed apart in the source
[13] = HeLa cell cytotoxicity, dose response, cytotoxicity control for MgcRacGAP inhibitor project (AID 624300); assay type: functional
[14] = cytotoxicity toward NIH3T3 fibroblasts, dose response, counter-screen, cell-based, ATP luminescence, mouse fibroblasts (AID 2010); assay type: functional;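 also: cells exposed to compound for about 90 hours before reading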
[15] = molecular target: T5, DNA repair protein RAD52 homolog (Homo sapiens, UniProt P43351); assay type: functional, biochemical
T5 sequence (P43351 whole entry): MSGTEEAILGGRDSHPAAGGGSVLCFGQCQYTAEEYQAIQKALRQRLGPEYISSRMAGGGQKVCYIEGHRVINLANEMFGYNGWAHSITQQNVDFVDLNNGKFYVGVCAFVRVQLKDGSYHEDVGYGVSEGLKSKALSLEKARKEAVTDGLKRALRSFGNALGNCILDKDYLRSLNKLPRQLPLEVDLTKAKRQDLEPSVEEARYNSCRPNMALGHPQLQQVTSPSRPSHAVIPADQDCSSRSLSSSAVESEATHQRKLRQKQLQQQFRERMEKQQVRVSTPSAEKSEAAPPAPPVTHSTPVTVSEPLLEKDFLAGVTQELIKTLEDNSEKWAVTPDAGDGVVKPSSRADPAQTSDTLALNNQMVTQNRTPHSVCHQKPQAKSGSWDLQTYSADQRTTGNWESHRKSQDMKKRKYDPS

[16] = molecular target: T6, Rac GTPase-activating protein 1 (Homo sapiens, UniProt Q9H0H5); test: MgcRacGAP GTPase-activating activity inhibitors, confirmation, biochemical, ADP Hunter fluorescence, primary and confirmatory (AID 624330); assay type: functional
T6 sequence (Q9H0H5 whole entry): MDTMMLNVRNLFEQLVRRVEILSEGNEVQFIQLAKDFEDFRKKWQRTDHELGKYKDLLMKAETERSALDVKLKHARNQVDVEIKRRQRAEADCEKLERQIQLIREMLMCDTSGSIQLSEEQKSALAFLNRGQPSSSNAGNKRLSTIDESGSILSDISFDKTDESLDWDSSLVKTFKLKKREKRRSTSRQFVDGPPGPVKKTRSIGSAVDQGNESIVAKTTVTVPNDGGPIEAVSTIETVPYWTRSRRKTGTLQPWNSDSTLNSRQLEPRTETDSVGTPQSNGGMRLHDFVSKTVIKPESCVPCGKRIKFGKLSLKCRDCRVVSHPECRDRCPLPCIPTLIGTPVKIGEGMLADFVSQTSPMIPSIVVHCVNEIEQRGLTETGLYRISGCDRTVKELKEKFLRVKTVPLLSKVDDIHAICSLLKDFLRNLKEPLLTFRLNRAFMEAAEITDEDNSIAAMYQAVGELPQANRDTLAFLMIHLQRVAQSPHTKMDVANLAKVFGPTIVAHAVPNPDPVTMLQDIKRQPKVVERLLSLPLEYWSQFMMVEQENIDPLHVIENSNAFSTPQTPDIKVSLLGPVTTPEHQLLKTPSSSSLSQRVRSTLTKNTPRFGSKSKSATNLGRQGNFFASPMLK

Galanin receptor type 3, sequence (O60755 whole entry): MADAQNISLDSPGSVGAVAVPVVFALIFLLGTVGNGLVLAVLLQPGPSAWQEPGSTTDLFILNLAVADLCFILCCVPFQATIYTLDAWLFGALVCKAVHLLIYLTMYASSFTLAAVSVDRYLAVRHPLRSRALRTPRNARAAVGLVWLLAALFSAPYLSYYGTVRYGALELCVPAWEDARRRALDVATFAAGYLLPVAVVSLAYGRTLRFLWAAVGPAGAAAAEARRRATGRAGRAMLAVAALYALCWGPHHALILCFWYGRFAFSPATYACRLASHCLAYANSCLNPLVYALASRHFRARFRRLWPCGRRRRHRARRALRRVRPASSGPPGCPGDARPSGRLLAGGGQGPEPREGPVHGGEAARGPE

Structure (SMILES): Nc1nc2ccccc2cc1C(=O)NCc1ccc(-c2ccccc2)cc1
- IC50 (Galanin receptor type 3): 0.392 µM (active)
- EC50 (cells [1]): > 29.9 µM (inactive)
- IC50 [2]: 2.01 µM (active)

Structure (SMILES): CCc1cccc2c(C(=O)Cn3nnc(-c4ccc(OC)c(OC)c4)n3)c[nH]c12
- AC50 [3]: 40.8 µM (active)
- IC50 (Estrogen receptor): 10.3 µM (active)

Structure (SMILES): COc1ccccc1CNC(=O)C[C@H]1C[C@@H]2c3cc(NC(=O)CN(C)C)ccc3O[C@@H]2[C@@H](CO)O1
- AbsAC35 [4]: 106.52 µM

Structure (SMILES): CCN(CC)CCn1nc2c3c(cccc3c1=O)-c1ccccc1-2
- AC50 [5]: 5.92 µM (active)
- IC50 [6]: > 67.5 µM (inactive)
- EC50 [7]: > 91.2 µM (inactive)
- EC50 [8]: > 260 µM (inactive)
- EC50 [9]: 1.46 µM (active)
- EC50 [10]: > 91.2 µM (inactive)
- AC50 (INS1): 2.4 µM (active)
- EC50 (cells [11]): 41 µM (active)
- EC50 (cells [12]): > 350 µM (not active)

Structure (SMILES): Cc1noc(C)c1S(=O)(=O)Nc1ccc2c(c1)C(=O)N([C@H](C)CO)C[C@H](C)[C@H](CN(C)Cc1ccc(C(F)(F)F)cc1)OCCCC[C@H](C)O2
- AbsAC35 [4]: 76.4 µM

Structure (SMILES): COc1ccc(/C=N/Nc2cc(C)nc3c(C)cccc23)cc1
- CC50 [13]: 31.6 µM (active)
- EC50 [14]: > 60 µM (not active)
- EC50 [7]: > 91.2 µM (inactive)
- EC50 [9]: 1.14 µM (active)
- EC50 [10]: > 91.2 µM (inactive)
- AC50 [15]: 2.28 µM (active)
- IC50 [16]: 68.9 µM (active)
